Laboratory results as given in paper PMC9995734, “Polysulfide metabolizing enzymes influence SqrR-mediated sulfide-induced transcription by impacting intracellular polysulfide dynamics” (PNAS Nexus, 2023).

Legend:
[1] = test system: SqrR C9S, CysSSH-treated (oxidized) (Rhodobacter capsulatus (SB1003?)); test: fluorescence anisotropy; settings: SqrR titrated into fluorescein-labeled operator in quartz cuvette without TCEP, buffer, salt, pH and temperature not given in the …
[2] = test system: SqrR C9S (reduced) (Rhodobacter capsulatus (SB1003?)); test: fluorescence anisotropy; settings: SqrR titrated into fluorescein-labeled operator in quartz cuvette without TCEP, buffer, salt, pH and temperature not given in the …
[3] = test system: SqrR C9S, GSSH-treated (oxidized) (Rhodobacter capsulatus (SB1003?)); test: fluorescence anisotropy; settings: SqrR titrated into fluorescein-labeled operator in quartz cuvette without TCEP, buffer, salt, pH and temperature not given in the …
SQR [4] = target: T1, SQR (Rhodobacter capsulatus, UniProt D5APH8); test: co-purification; assay type: binding; settings: noncovalently bound
T1 sequence (D5APH8 1-427): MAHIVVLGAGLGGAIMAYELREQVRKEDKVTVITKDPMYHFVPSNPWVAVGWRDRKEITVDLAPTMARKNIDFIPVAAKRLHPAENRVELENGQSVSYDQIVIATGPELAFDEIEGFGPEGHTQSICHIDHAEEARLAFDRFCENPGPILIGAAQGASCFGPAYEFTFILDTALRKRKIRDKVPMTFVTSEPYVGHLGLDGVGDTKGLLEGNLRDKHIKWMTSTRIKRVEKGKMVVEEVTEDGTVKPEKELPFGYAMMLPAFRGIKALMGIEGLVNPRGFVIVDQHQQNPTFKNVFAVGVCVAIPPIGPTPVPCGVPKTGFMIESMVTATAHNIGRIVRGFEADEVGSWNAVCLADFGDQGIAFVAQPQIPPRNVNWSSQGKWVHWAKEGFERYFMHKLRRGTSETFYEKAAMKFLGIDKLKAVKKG

SQR [5] = target: T1, SQR; test: steady-state sulfide:quinone reductase assay; assay type: biochemical; settings: electron acceptor at 100 μM; 4 mM KCN as S0 acceptor, Na2S 0-640 μM, 100 nM SQR
SqrR = target: T2, SqrR (Rhodobacter capsulatus, UniProt D5AT91); test: fluorescence anisotropy of DNA dissociation; LC-ESI-MS of adducts; assay type: binding; settings: covalent; pseudo-first-order oxidation of C41/C107; 20-fold excess sulfane sulfur, persulfide made in situ; DNA-bound SqrR; 25 mM HEPES pH 7.0, 400 mM NaCl, 1 mM EDTA, 25°C
T2 construct: recombinant, full-length, reduced C9S protomer 12295 amu
T2 sequence (D5AT91 15-124): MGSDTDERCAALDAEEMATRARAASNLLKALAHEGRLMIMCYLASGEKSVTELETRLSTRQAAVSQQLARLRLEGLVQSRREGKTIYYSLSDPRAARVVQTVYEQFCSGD
Source text: fluorescence anisotropy of DNA dissociation; LC-ESI-MS of adducts on SqrR

Molecule: TGACATATTCACAACTCGGAATGTAA / TTACATTCCGAGTGGTGAATATGTCA
- Ka [1]: 1.8 10^5 M-1
- Ka [2]: 270 10^5 M-1
- Ka [3]: 2.5 10^5 M-1

Molecule: Cc1cc2nc3c(=O)[nH]c(=O)nc-3n(C[C@H](O)[C@H](O)[C@H](O)COP(=O)(O)OP(=O)(O)OC[C@H]3O[C@@H](n4cnc5c(N)ncnc54)[C@H](O)[C@@H]3O)c2cc1C [flavin adenine dinucleotide]
- co-purification (SQR [4]): recombinant R. capsulatus SQR noncovalently bound with flavin adenine dinucleotide (FAD)

Molecule: CC1=CC(=O)c2ccccc2C1=O [menadione]
- steady-state sulfide:quinone reductase assay (SQR [5]): the steady-state activity was higher with MD

Molecule: N[C@@H](CCC(=O)N[C@@H](CSS)C(=O)NCC(=O)O)C(=O)O [glutathione persulfide]
- kox [x 10^-3 s^-1]^a / GSSH (SqrR): 0.86 ± 0.05 x 10^-3 s^-1

Molecule: COC1=C(OC)C(=O)C(CC=C(C)C)=C(C)C1=O [ubiquinone-1]
- steady-state sulfide:quinone reductase assay (SQR [5]): the activity with UQ-1 was also sufficient for further analyses

Molecule: N[C@@H](CSS)C(=O)O [cysteine persulfide]
- kox [x 10^-3 s^-1]^a / CSSH (SqrR): 3.8 ± 0.1 x 10^-3 s^-1
